Reference: the supplement of paper PMC5579334

Columns and labels:
ST8814 [1] = experiment: relative IC50 (inflection point of fitted dose-response curve, CellTox-Green cytotoxicity, 72 h; top asymptote may be below 50%); higher = less potent
Method in brief: (§1)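 For 72 h at 37 °C, MPNST cell lines and primary human Schwann cells were exposed in 384-well plates to five 10-fold compound dilutions. CellTox-Green, added before seeding at a final 1:1000 dilution, gave fluorescence from DNA released by disrupted cells. Signals were scaled to vehicle and positive-control wells, cultures failing plate quality control were left out, and four-parameter logistic fits were applied. Relative IC50 and drug sensitivity score were derived from the fits, with IC50 censored at the top concentration.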

STS26T [2] = experiment: as above
Method in brief: as §1

HSC1 [3] = experiment: as above
Method in brief: as §1

S1507-2 [4] = experiment: as above
Method in brief: as §1

HSC2 [5] = experiment: as above
Method in brief: as §1

HS-Sch-2 = experiment: relative IC50 (inflection point of fitted dose-response curve, CellTiter-Glo viability, 72 h; top asymptote may be below 50% inhibition); higher = less potent
Method in brief: (§2)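 After seeding 750–1000 cells per well of MPNST cell lines or primary human Schwann cells into 384-well plates preprinted with each compound at five concentrations in 10-fold steps, plates were kept 72 h at 37 °C, 5% CO2. Viability was read as CellTiter-Glo ATP luminescence relative to vehicle and positive-control wells, with duplicates averaged where present. The data were fitted with four-parameter logistic models. Drug sensitivity score and relative IC50, censored at the top concentration, derive from the fits, and percent inhibition refers to the top concentration.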

ST8814 [6] = experiment: as above
Method in brief: as §2

STS26T [7] = experiment: as above
Method in brief: as §2

HS-PSS [8] = experiment: as above
Method in brief: as §2

YST-1 = experiment: as above
Method in brief: as §2

HSC1 [9] = experiment: as above
Method in brief: as §2

S1507-2 [10] = experiment: as above
Method in brief: as §2

S462 = experiment: as above
Method in brief: as §2

HSC2 [11] = experiment: as above
Method in brief: as §2

HS-PSS [12] = experiment: relative IC50 (inflection point of fitted dose-response curve, CellTox-Green cytotoxicity, 72 h; top asymptote may be below 50%); higher = less potent
Method in brief: as §1

| SMILES | relative IC50 (ST8814 [1]) | relative IC50 (STS26T [2]) | relative IC50 (HSC1 [3]) | relative IC50 (S1507-2 [4]) | relative IC50 (HSC2 [5]) | relative IC50 (HS-Sch-2) | relative IC50 (ST8814 [6]) | relative IC50 (STS26T [7]) | relative IC50 (HS-PSS [8]) | relative IC50 (YST-1) | relative IC50 (HSC1 [9]) | relative IC50 (S1507-2 [10]) | relative IC50 (S462) | relative IC50 (HSC2 [11]) | relative IC50 (HS-PSS [12]) |
| --- | --- | --- | --- | --- | --- | --- | --- | --- | --- | --- | --- | --- | --- | --- | --- |
| COc1ccc(-c2cc3c(C)nc(N)nc3n([C@H]3CC[C@H](OCCO)CC3)c2=O)cn1 | 1520 nM | 350 nM | 501 nM | 1630 nM | 2710 nM | 476 nM | 209 nM | 124 nM | 404 nM | 57.8 nM | 197 nM | 89 nM | 196 nM | 270 nM | – |
| C[C@@]1(C(=O)Nc2ccc(F)nc2)CCCN1c1nc(Nc2cc(C3CC3)n[nH]2)c2cccn2n1 | 312 nM | 279 nM | 2360 nM | 1650 nM | 1400 nM | 1150 nM | 534 nM | 663 nM | 1650 nM | 18.2 nM | 441 nM | 495 nM | 307 nM | 308 nM | 3.33 µM |
| Nc1ncnc2c1nc(N)n2[C@@H]1O[C@H](CO)[C@@H](O)[C@H]1O [8-amino-adenosine] | 1730 nM | 1060 nM | 6650 nM | 2820 nM | 7010 nM | 1230 nM | 1110 nM | 1100 nM | 1620 nM | 647 nM | 1360 nM | 885 nM | 1080 nM | 2250 nM | 4.13 µM |
| COc1ccc(S(=O)(=O)Nc2cccnc2Nc2ccc(O)cc2)cc1 [ABT-751] | 536 nM | 246 nM | 831 nM | 355 nM | 304 nM | 437 nM | 353 nM | 367 nM | 3010 nM | 814 nM | 468 nM | 325 nM | 351 nM | 476 nM | > 10 µM |
| O=C(Nc1c[nH]nc1-c1nc2ccc(CN3CCOCC3)cc2[nH]1)NC1CC1 [AT9283] | 31.9 nM | 145 nM | 231 nM | 167 nM | 276 nM | 332 nM | 60.2 nM | 172 nM | 178 nM | 139 nM | 83.1 nM | 94.6 nM | 122 nM | 79.6 nM | > 1 µM |
| CNC(=O)c1cccc(-c2ccc3c(N4CCOC[C@@H]4C)nc(N4CCOC[C@@H]4C)nc3n2)c1 [AZD2014] | > 10000 nM | > 10000 nM | > 10000 nM | > 10000 nM | > 10000 nM | 366 nM | 654 nM | 401 nM | 505 nM | 119 nM | 306 nM | 335 nM | 364 nM | 322 nM | > 10 µM |
| NC(=O)Nc1cc(-c2cccc(F)c2)sc1C(=O)N[C@H]1CCCNC1 [AZD7762] | 243 nM | 135 nM | 313 nM | 57.1 nM | 266 nM | 67 nM | 149 nM | 139 nM | 207 nM | 313 nM | 161 nM | 63.1 nM | 54.7 nM | 310 nM | – |
| Oc1ncnc2[nH]ncc12 [Allopurinol] | > 10000 nM | > 10000 nM | > 10000 nM | > 10000 nM | > 10000 nM | > 10000 nM | > 10000 nM | > 10000 nM | > 10000 nM | > 10000 nM | > 10000 nM | > 10000 nM | > 10000 nM | > 10000 nM | > 10 µM |
| CO[C@H]1/C=C\C=C(/C)C(=O)NC2=CC(=O)C(NCCN(C)C)=C(C[C@@H](C)C[C@H](OC)[C@H](O)[C@@H](C)/C=C(\C)[C@@H]1OC(N)=O)C2=O [Alvespimycin] | 106 nM | 95.7 nM | 198 nM | 106 nM | 187 nM | 47.3 nM | 54.9 nM | 72 nM | 45.5 nM | 24.4 nM | 132 nM | 78.4 nM | 48.1 nM | 134 nM | 0.049 µM |
| CC[C@@H]1C(=O)N(C)c2cnc(Nc3ccc(C(=O)NC4CCN(C)CC4)cc3OC)nc2N1C1CCCC1 [BI 2536] | 4.57 nM | 2.27 nM | 22.3 nM | 10.6 nM | 21.5 nM | 3.28 nM | 9.3 nM | 3.49 nM | 7.64 nM | 3.54 nM | 27.1 nM | 11.9 nM | 4.92 nM | 22.6 nM | – |
| Cn1c(CCCC(=O)O)nc2cc(N(CCCl)CCCl)ccc21 [Bendamustine] | > 10000 nM | > 10000 nM | > 10000 nM | > 10000 nM | > 10000 nM | > 10000 nM | > 10000 nM | > 10000 nM | > 10000 nM | – | > 10000 nM | > 10000 nM | > 10000 nM | > 10000 nM | > 10 µM |
| Cn1c(=O)n(-c2ccc(C(C)(C)C#N)cc2)c2c3cc(-c4cnc5ccccc5c4)ccc3ncc21 [Dactolisib] | > 1000 nM | > 1000 nM | > 1000 nM | > 1000 nM | > 1000 nM | 12.1 nM | 15.3 nM | 7.77 nM | 15.7 nM | 11.9 nM | 8.56 nM | 11 nM | 14.8 nM | 8.32 nM | – |
